Experimental findings from US9567339B2, “Primary carboxamides as BTK inhibitors” (AbbVie Inc., priority 2013, dated 2017) are described below.

The first experiment deals with BTK, recombinant human catalytic domain (aa 393-659) (Homo sapiens (Human), UniProt Q06187). The experiment is described as follows: In vitro BTK kinase activity measured by time-resolved fluorescence resonance energy transfer (trFRET).
Chain of BTK, recombinant human catalytic domain (aa 393-659) (Q06187 393-659): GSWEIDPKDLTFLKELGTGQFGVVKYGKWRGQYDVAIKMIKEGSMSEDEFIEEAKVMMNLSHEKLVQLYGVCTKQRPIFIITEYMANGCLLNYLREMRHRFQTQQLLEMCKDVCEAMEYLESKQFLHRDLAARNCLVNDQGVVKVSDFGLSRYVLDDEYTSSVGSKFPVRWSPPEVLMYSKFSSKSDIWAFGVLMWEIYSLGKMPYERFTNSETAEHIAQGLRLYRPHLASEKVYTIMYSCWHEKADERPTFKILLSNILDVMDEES
Settings: not given
Type of experiment: biochemical.
For `Cc1c(NC(=O)c2nccs2)cccc1-c1ccc(C(N)=O)c2[nH]cc(NC(=O)CCl)c12` [E.5.1], the IC50 lay in the range of 1000 to 10000 nM.

The experiment is the same for the next values; noted with them: read-out: Btk IC50.
In the case of `Cn1cc(-c2cc3c(N4CCC[C@@H](NC(=O)c5ccc(C(F)F)cc5)C4)ccc(C(N)=O)c3[nH]2)cn1` [O.1.22*], the IC50 was 100 to 1000 nM.

In the case of `C=CC(=O)Nc1ccc(F)c(-c2ccc(C(N)=O)c3[nH]ccc23)c1F` [E.1.20], the half-inhibitory concentration (IC50) is below 100 nM.

As for `C=CC(=O)N1CCOC[C@@H](c2ncc(C(N)=O)c3[nH]ccc23)C1` [E.9.30], the IC50 is below 100 nM.

Consider `NC(=O)c1ccc(N2CCC[C@@H](n3cnc4ccccc4c3=O)C2)c2cc(-c3cccnc3)[nH]c12` [O.1.27*], for which the IC50 was 100 to 1000 nM.

As to `C=CC(=O)N(CC(C)C)c1cccc(-c2ccc(C(N)=O)c3[nH]ccc23)c1` [E.1.35, 4-(3-(N-isobutylacrylamido)phenyl)-1H-indole-7-carboxamide], the IC50 was in the range of 100 to 1000 nM.

For `COc1ccc(C(=O)N[C@@H]2CCCN(c3ccc(C(N)=O)c4[nH]ccc34)C2)cc1` [O.1.9*], the 50% inhibitory concentration (IC50) lay in the range of 1000 to 10000 nM.

Consider `Cc1c(NC(=O)CCN(C)C)cccc1-c1ccc(C(N)=O)c2[nH]c(C3=CCN(S(C)(=O)=O)CC3)cc12` [D.7.23], for which the IC50 is below 100 nM.

For `Cc1c(NC(=O)COc2ccccc2)cccc1-c1ccc(C(N)=O)c2[nH]c(C3=CCN(S(C)(=O)=O)CC3)cc12` [D.7.21], the 50% inhibitory concentration (IC50) is below 100 nM.

Take `C=CC(=O)Nc1cncc(-c2ccc(C(N)=O)c3[nH]ccc23)c1` [E.1.4]: the half-maximal inhibitory concentration (IC50) is below 100 nM.

On to `C=CC(=O)Nc1cccc(-c2ccc(C(N)=O)c3[nH]ccc23)c1OC` [E.1.30], for which the half-inhibitory concentration (IC50) fell in the range of 100 to 1000 nM.

As for `C/C=C/C(=O)Nc1cccc(-c2ccc(C(N)=O)c3[nH]c(C4=CCN(S(C)(=O)=O)CC4)cc23)c1C` [D.7.9], the concentration for half-maximal inhibition (IC50) was below 100 nM.

On to `C=CC(=O)N1C[C@H](CO)C[C@@H](c2ccc(C(N)=O)c3[nH]ccc23)C1` [E.9.44], for which the IC50 fell in the range of 100 to 1000 nM.

As to `Cc1c(NC(=O)C2CCCCC2)cccc1-c1ccc(C(N)=O)c2[nH]c(C3=CCN(S(C)(=O)=O)CC3)cc12` [D.7.29], the IC50 is below 100 nM.

Take `C=C(CN)C(=O)Nc1cccc(-c2ccc(C(N)=O)c3[nH]ccc23)c1` [G.1.2]: the 50% inhibitory concentration (IC50) is below 100 nM.

On to `CC(=O)C(=O)Nc1cccc(-c2ccc(C(N)=O)c3[nH]ccc23)c1` [E.7.1], for which the IC50 fell in the range of 100 to 1000 nM.

In the case of `C=CC(=O)Nc1cccc(-c2ncc(C(N)=O)c3[nH]ccc23)c1` [E.1.10], the IC50 is below 100 nM.

Take `Cc1c(NC(=O)C2CCOCC2)cccc1-c1ccc(C(N)=O)c2[nH]c(C3=CCN(S(C)(=O)=O)CC3)cc12` [D.7.33]: the IC50 was below 100 nM.

Consider `Cc1c(NC(=O)c2cnsc2)cccc1-c1ccc(C(N)=O)c2[nH]c(C3=CCN(S(C)(=O)=O)CC3)cc12` [D.7.38], for which the half-inhibitory concentration (IC50) is below 100 nM.

On to `Cc1c(NC(=O)COc2ccc(F)cc2)cccc1-c1ccc(C(N)=O)c2[nH]c(C3=CCN(S(C)(=O)=O)CC3)cc12` [D.7.11], for which the 50% inhibitory concentration (IC50) was below 100 nM.

`C=CC(=O)N1CCOC[C@H](c2cnc(C(N)=O)c3[nH]ccc23)C1` [Example 3.2]: the IC50 is 100 to 1000 nM.

As to `C=CC(=O)Nc1ccccc1-c1ccc(C(N)=O)c2[nH]ccc12` [E.1.2], the concentration for half-maximal inhibition (IC50) was in the range of 1000 to 10000 nM.

For the compound `C=CC(=O)N1CC(N(C)c2ccc(C(N)=O)c3[nH]c(C4CCOC4)cc23)C1` (centres unmarked) [E.9.21], the IC50 is below 100 nM.

As to `Cc1c(NC(=O)/C=C/CN2CCOCC2)cccc1-c1ccc(C(N)=O)c2[nH]ccc12` [J.1.5], the 50% inhibitory concentration (IC50) lay in the range of 1000 to 10000 nM.

With `C/C=C(/C)C(=O)Nc1cccc(-c2ccc(C(N)=O)c3[nH]c(C4=CCN(S(C)(=O)=O)CC4)cc23)c1C` [D.7.1], the IC50 is below 100 nM.

For the compound `C=CC(=O)N1CC(C)(N(C)c2ccc(C(N)=O)c3[nH]ccc23)C1` [E.9.35], the concentration for half-maximal inhibition (IC50) was below 100 nM.

On to `C=CC(=O)N1CCO[C@@H](c2ccc(C(N)=O)c3[nH]c(-c4cnn(C)c4)cc23)C1` [E.9.24], for which the half-maximal inhibitory concentration (IC50) was below 100 nM.

Take `C=CC(=O)Nc1cc(-c2ccc(C(N)=O)c3[nH]ccc23)ccc1C` [E.1.25]: the IC50 is below 100 nM.

As to `C=CC(=O)N1CC(N(C)c2ccc(C(N)=O)c3[nH]c(-c4cn(C)nc4C)cc23)C1` [E.9.18], the 50% inhibitory concentration (IC50) is below 100 nM.

As to `C=CC(=O)N1CC(N(C)c2ccc(C(N)=O)c3[nH]c([C@H]4CCOC4)cc23)C1` [Example 5.2], the half-inhibitory concentration (IC50) was below 100 nM.

As for `C=CC(=O)N1CCC[C@@H](c2cnc(C(N)=O)c3[nH]ccc23)C1` [E.9.51], the IC50 is 100 to 1000 nM.

Still in this experiment, the particulars now being: trFRET, 0.001 mM ATP, biotin-TYR1 peptide substrate; read-out: Btk IC50.
Take `C=CC(=O)Nc1cccc(-c2ccc(C(N)=O)c3[nH]c(-c4cnn(CCN5CCOCC5)c4)cc23)c1C` [A.1.8]: the 50% inhibitory concentration (IC50) was below 100 nM.

As to `Cc1c(NCCO)cccc1-c1ccc(C(N)=O)c2[nH]c(C3=CCN(S(C)(=O)=O)CC3)cc12` [A.4.13], the IC50 is below 100 nM.

For the compound `CC(=O)N1CCC(c2cc3c(-c4cccc(N)c4C)ccc(C(N)=O)c3[nH]2)CC1` [L.1, 2-(1-Acetylpiperidin-4-yl)-4-(3-amino-2-methylphenyl)-1H-indole-7-carboxamide], the IC50 was 100 to 1000 nM.

Regarding `NC(=O)c1ccc(-c2ccn[nH]2)c2cc(-c3ccc(F)cc3)[nH]c12` [A.9.5], the 50% inhibitory concentration (IC50) was in the range of 100 to 1000 nM.

On to `NC(=O)c1ccc(-c2ccccc2NC(=O)Cn2sc3ccccc3c2=O)c2cc[nH]c12` [D.2.1], for which the IC50 was in the range of 1000 to 10000 nM.

In the case of `CS(=O)(=O)N1CC=C(c2cc3c(N4CCC[C@@H](N5CCCCC5=O)C4)ccc(C(N)=O)c3[nH]2)CC1` [Example 12, (R)-2-(1-(Methylsulfonyl)-1,2,3,6-tetrahydropyridin-4-yl)-4-(2-oxo-1,3′-bipiperidin-1′-yl)-1H-indole-7-carboxamide], the half-inhibitory concentration (IC50) lay within 100 to 1000 nM.

Take `Cc1c(NC(=O)c2nccs2)cccc1-c1ccc(C(N)=O)c2[nH]c(-c3ccc(=O)n(C)c3)cc12` [A.2.1]: the IC50 was below 100 nM.

In the case of `Cc1c(NC(=O)c2nccs2)cccc1-c1ccc(C(N)=O)c2[nH]c(-c3ccccc3CNC(=O)COc3ccccc3)cc12` [D.1.6], the IC50 was 1000 to 10000 nM.

Turning to `C=C(CN1CCOCC1)C(=O)Nc1cccc(-c2ccc(C(N)=O)c3[nH]ccc23)c1` [D.6.2], the IC50 is below 100 nM.

Turning to `C/C=C/C(=O)Nc1c[nH]c2c(C(N)=O)ccc(-c3cccc(NC(=O)c4nccs4)c3C)c12` [D.3.3], the half-maximal inhibitory concentration (IC50) fell in the range of 1000 to 10000 nM.

For the compound `Cc1c(-c2ccc(C(N)=O)c3[nH]c(-c4cccnc4)cc23)cccc1-n1cnc2ccccc2c1=O` [A.7.2], the IC50 was below 100 nM.

With `CS(=O)(=O)N1CC=C(c2cc3c(-c4ccccc4)ccc(C(N)=O)c3[nH]2)CC1` [A.4.7], the IC50 was below 100 nM.

`C=CC(=O)Nc1cccc(-c2ccc(C(N)=O)c3[nH]c(-c4cnn(CC(C)C)c4)cc23)c1C` [A.1.7]: the half-inhibitory concentration (IC50) is below 100 nM.

For the compound `C=CC(=O)Nc1cccc(-c2ccc(C(N)=O)c3[nH]c(-c4ccc(N5CCOCC5)nc4)cc23)c1C` [A.1.30], the IC50 is below 100 nM.

Consider `N#CCNC(=O)c1cccc(-c2ccc(C(N)=O)c3[nH]ccc23)c1` [Example 15, 4-(3-((Cyanomethyl)carbamoyl)phenyl)-1H-indole-7-carboxamide], for which the IC50 fell in the range of 1000 to 10000 nM.

In the case of `C=C(C(=O)Nc1cccc(-c2ccc(C(N)=O)c3[nH]ccc23)c1C)c1ccccc1` [D.8.7], the half-inhibitory concentration (IC50) lay within 100 to 1000 nM.

As to `C=CC(=O)N1CCCC(c2ccc(C(N)=O)c3[nH]ccc23)C1` (centres unmarked) [Example 25, 4-(1-Acryloylpiperidin-3-yl)-1H-indole-7-carboxamide], the IC50 lay in the range of 100 to 1000 nM.

`C=CC(=O)Nc1cccc(-c2ccc(C(N)=O)c3[nH]c(-c4cn(C)nc4C)cc23)c1C` [A.1.5]: the IC50 is below 100 nM.

In the case of `Cc1c(N)cccc1-c1ccc(C(N)=O)c2[nH]ccc12` [Example 16, 4-(3-Amino-2-methylphenyl)-1H-indole-7-carboxamide], the IC50 was in the range of 1000 to 10000 nM.

`Cc1c(NC(=O)c2ccc(C(F)F)cc2)cccc1-c1ccc(C(N)=O)c2[nH]c(C3=CCN(S(C)(=O)=O)CC3)cc12` [A.4.10]: the IC50 was below 100 nM.

In the case of `Cc1c(NC(=O)c2nccs2)cccc1-c1ccc(C(N)=O)c2[nH]c(-c3ccccc3CNC(=O)COc3ccc(F)cc3)cc12` [D.1.7], the concentration for half-maximal inhibition (IC50) was 1000 to 10000 nM.

With `C=CC(=O)N1CC(N(C)c2ccc(C(N)=O)c3[nH]ccc23)C1` [Example 24, 4-((1-Acryloylazetidin-3-yl)(methyl)amino)-1H-indole-7-carboxamide], the IC50 was below 100 nM.

For `Cc1c(NC(=O)c2nccs2)cccc1-c1ccc(C(N)=O)c2[nH]c(C3=CCN(S(C)(=O)=O)CC3)cc12` [A.4.17], the IC50 was below 100 nM.

Take `CNC(=O)/C=C/C(=O)Nc1cccc(-c2ccc(C(N)=O)c3[nH]ccc23)c1` [D.4.1]: the IC50 was in the range of 1000 to 10000 nM.

For `CC(=O)Nc1cccc(-c2ccc(C(N)=O)c3[nH]ccc23)c1C` [D.8.12], the IC50 lay within 1000 to 10000 nM.

For the compound `C=CC(=O)Nc1cccc(-c2ccc(C(N)=O)c3[nH]c(-c4cccc(C#N)c4)cc23)c1C` [A.1.14], the IC50 is below 100 nM.

On to `Cc1c(NC(=O)/C=C/c2cnn(C)c2)cccc1-c1ccc(C(N)=O)c2[nH]ccc12` [D.8.2], for which the 50% inhibitory concentration (IC50) lay within 100 to 1000 nM.

With `Cc1c(-c2ccc(C(N)=O)c3[nH]c(C4=CCN(S(C)(=O)=O)CC4)cc23)cccc1N1CCc2ccccc2C1=O` [A.4.6], the IC50 is below 100 nM.

For the compound `C=C(C)C(=O)Nc1c[nH]c2c(C(N)=O)ccc(-c3cccc(NC(=O)c4nccs4)c3C)c12` [D.3.4], the half-inhibitory concentration (IC50) is 1000 to 10000 nM.

Turning to `C=CC(=O)Nc1ccc(C(N)=O)c2[nH]ccc12` [Example 5, 4-Acrylamido-1H-indole-7-carboxamide], the IC50 lay in the range of 1000 to 10000 nM.

Consider `C=CC(=O)NCc1ccccc1-c1cc2c(-c3cccc(NC(=O)c4nccs4)c3C)ccc(C(N)=O)c2[nH]1` [D.1.2], for which the 50% inhibitory concentration (IC50) lay within 1000 to 10000 nM.

For `C=CC(=O)Nc1cccc(-c2ccc(C(N)=O)c3[nH]c(CCO)cc23)c1` [Example 23, 4-(3-Acrylamidophenyl)-2-(2-hydroxyethyl)-1H-indole-7-carboxamide], the half-inhibitory concentration (IC50) is below 100 nM.

Consider `Cc1ccc(-c2cc3c(-c4cccs4)ccc(C(N)=O)c3[nH]2)cc1` [A.8.9], for which the 50% inhibitory concentration (IC50) was in the range of 100 to 1000 nM.

Regarding `Cc1c(NC(=O)/C=C/CN(C)C)cccc1-c1ccc(C(N)=O)c2[nH]ccc12` [J.1, (E)-4-(3-(4-(Dimethylamino)but-2-enamido)-2-methylphenyl)-1H-indole-7-carboxamide], the concentration for half-maximal inhibition (IC50) was 100 to 1000 nM.

As usually defined, the IC50 is the concentration that inhibits the measured activity by half.
